Reference: US8153631B2, “Triazole compounds and uses related thereto” (Amgen Inc., priority 2003, dated 2012)
Counter-ions that a name gives are not always drawn.

Molecular target: T1, human HSD1 (recombinant HSD1) (Homo sapiens, UniProt P28845)
T1 construct: made in house
Experiment: In vitro HSD1 activity inhibitory action, SPA of cortisone to cortisol conversion
Type: biochemical
Details: recombinant human HSD1 0.1 μg/ml, 500 μM NADPH, 16 nM 3H cortisone, room temperature 90 min, read-out: hHSD1 IC50
Method: In Vitro HSD1 (Hydroxysteroid Dehydrogenase 1) Activity Inhibitory Action
The HSD1 inhibitory activity was examined by quantitative determination by an SPA (scintillation proximity assay) system of the suppressive action on the conversion from cortisone to cortisol using human HSD1 (hereinafter recombinant HSD1) expressed using a baculo-virus system as an enzyme source. For the reaction, a reagent was added to a 96 well plate (96 well Opti-plates™-96 (Packard)) to the following final concentration and a volume of 100 μl was reacted at room temperature for 90 min. The reaction solution used was 0.1 μg/ml recombinant HSD1, 500 μM NADPH, 16 nM ^3H cortisone (Amersham Biosciences, 1.78 Tbq/mol) dissolved in 0.1% BSA (Sigma)-containing PBS and the test drug was 2 μl of a compound solution (dissolved in DMSO). After 90 min, the reaction was stopped by adding PBS (40 μl, containing 0.1% BSA (Sigma)) containing 0.08 μg of anti-cortisol mouse monoclonal antibody (East Coast Biologics), 365 μg SPA PVT mouse antibody-binding beads (Amersham Biosciences) and 175 μM carbenoxolone (Sigma) to the reaction solution. After the completion of the reaction, the plate was incubated overnight at room temperature and the radioactivity was measured by Topcount (Packard). For control, the value (0% inhibition) of the well containing 2 μl of DMSO instead of the test drug was used, and for positive control, the value (100% inhibition) of the well containing carbenoxolone instead of the test drug at the final concentration of 50 μM was used. The inhibition (%) of the test drug was calculated by ((value of control−value of test drug)/(value of control−value of positive control))×100 (%). The IC50 value was analyzed using a computer-based curve fitting soft.

T1 sequence (P28845 whole entry): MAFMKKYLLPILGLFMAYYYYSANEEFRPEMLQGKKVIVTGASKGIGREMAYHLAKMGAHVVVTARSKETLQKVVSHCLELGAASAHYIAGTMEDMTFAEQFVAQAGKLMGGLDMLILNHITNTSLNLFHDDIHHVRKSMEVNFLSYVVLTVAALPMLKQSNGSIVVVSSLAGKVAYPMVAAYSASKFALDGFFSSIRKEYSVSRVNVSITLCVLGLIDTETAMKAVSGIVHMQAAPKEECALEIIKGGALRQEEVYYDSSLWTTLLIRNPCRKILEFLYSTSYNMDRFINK

IC50	Compound
10 to 1000 nM	Cn1c(-c2ccc(NC(=O)CN3CCCC(O)C3)cc2Cl)nnc1C1(c2ccccc2)CC1 (stereo not drawn) [Ex. 1-44]
10 to 1000 nM	COC1CCN(CC(=O)Nc2ccc(-c3nnc(C4(c5ccccc5)CC4)n3C)c(Cl)c2)CC1 [Ex. 1-45]
10 to 1000 nM	Cn1c(-c2ccc(N3CCOCC3)cc2)nnc1C1(c2ccccc2)CC1 [Ex. 1-46]
< 10 nM	CC(=O)Nc1ccc(-c2nnc(C3(c4ccc(F)cc4)CC3)n2C)c(Cl)c1 [Ex. 1-47]
10 to 1000 nM	Cn1c(-c2ccc(N3CCNCC3)cc2Cl)nnc1C1(c2ccccc2)CC1 [Ex. 1-48]
< 10 nM	CC(=O)N1CCN(c2ccc(-c3nnc(C4(c5ccccc5)CC4)n3C)c(Cl)c2)CC1 [Ex. 1-49]
< 10 nM	Cn1c(-c2ccc(N3CCN(S(C)(=O)=O)CC3)cc2Cl)nnc1C1(c2ccccc2)CC1 [Ex. 1-50]
< 10 nM	CC(C)C(=O)N1CCN(c2ccc(-c3nnc(C4(c5ccccc5)CC4)n3C)c(Cl)c2)CC1 [Ex. 1-51]
< 10 nM	Cn1c(-c2ccc(N3CCCCC3)cc2Cl)nnc1C1(c2ccccc2)CC1 [Ex. 1-53]
< 10 nM	Cn1c(-c2ccc(N3CCC(O)CC3)cc2Cl)nnc1C1(c2ccccc2)CC1 [Ex. 1-54]
< 10 nM	Cn1c(-c2ccc(N3CCOCC3)cc2Cl)nnc1C1(c2ccc(F)cc2)CC1 [Ex. 1-55]
< 10 nM	CC1CCN(c2ccc(-c3nnc(C4(c5ccccc5)CC4)n3C)c(Cl)c2)CC1 [Ex. 1-56]
< 10 nM	Cn1c(-c2ccc(N3CCCC3)cc2Cl)nnc1C1(c2ccccc2)CC1 [Ex. 1-57]
< 10 nM	COC(=O)C1CCN(c2ccc(-c3nnc(C4(c5ccccc5)CC4)n3C)c(Cl)c2)CC1 [Ex. 1-58]
10 to 1000 nM	Cn1c(-c2ccc(N3CCC(C(=O)O)CC3)cc2Cl)nnc1C1(c2ccccc2)CC1 [Ex. 1-59]
< 10 nM	CNC(=O)C1CCN(c2ccc(-c3nnc(C4(c5ccccc5)CC4)n3C)c(Cl)c2)CC1 [Ex. 1-60]
10 to 1000 nM	Cn1c(-c2ccc(N3CCC4(CC3)OCCO4)cc2Cl)nnc1C1(c2ccccc2)CC1 [Ex. 1-61]
< 10 nM	COCCOC(=O)C1CCN(c2ccc(-c3nnc(C4(c5ccccc5)CC4)n3C)c(Cl)c2)CC1 [Ex. 1-62]
< 10 nM	Cn1c(-c2ccc(N3CCC(NC(=O)OC(C)(C)C)CC3)cc2Cl)nnc1C1(c2ccccc2)CC1 [Ex. 1-63]

IC50	Compound
10 to 1000 nM	Cn1c(-c2ccc(N3CCC(N)CC3)cc2Cl)nnc1C1(c2ccccc2)CC1 [Ex. 1-64]
< 10 nM	Cn1c(-c2ccc(N3CCCC(O)C3)cc2Cl)nnc1C1(c2ccccc2)CC1 (stereo not drawn) [Ex. 1-66]
< 10 nM	COc1ccc(COc2ccc(-c3nnc(C4(c5ccccc5)CC4)n3C)c(Cl)c2)cc1 [Ex. 1-67]
< 10 nM	Cn1c(-c2ccc(O)cc2Cl)nnc1C1(c2ccccc2)CC1 [Ex. 1-68]
< 10 nM	Cn1c(-c2ccc(OCC(N)=O)cc2Cl)nnc1C1(c2ccccc2)CC1 [Ex. 1-69]
< 10 nM	COC(=O)c1ccc(-c2nnc(C3(c4ccccc4)CC3)n2C)c(Cl)c1 [Ex. 1-70]
< 10 nM	Cn1c(-c2ccc(S(C)(=O)=O)cc2Cl)nnc1C1(c2ccccc2)CC1 [Ex. 1-71]
10 to 1000 nM	Cn1c(-c2ccc(C(=O)O)cc2Cl)nnc1C1(c2ccccc2)CC1 [Ex. 1-72]
< 10 nM	Cn1c(-c2ccc(C(N)=O)cc2Cl)nnc1C1(c2ccccc2)CC1 [Ex. 1-73]
10 to 1000 nM	Cn1c(-c2ccc(C(=O)N3CCOCC3)cc2Cl)nnc1C1(c2ccccc2)CC1 [Ex. 1-74]
< 10 nM	CNC(=O)c1ccc(-c2nnc(C3(c4ccccc4)CC3)n2C)c(Cl)c1 [Ex. 1-75]
< 10 nM	COc1ccc(-c2nnc(C3(c4ccccc4)CC3)n2C)c(Cl)c1 [Ex. 1-76]
10 to 1000 nM	CN(C)C(=O)c1ccc(-c2nnc(C3(c4ccccc4)CC3)n2C)c(Cl)c1 [Ex. 1-77]
10 to 1000 nM	Cn1c(-c2ccc(C(=O)NCCO)cc2Cl)nnc1C1(c2ccccc2)CC1 [Ex. 1-78]
10 to 1000 nM	CC(C)NC(=O)c1ccc(-c2nnc(C3(c4ccccc4)CC3)n2C)c(Cl)c1 [Ex. 1-79]
10 to 1000 nM	Cn1c(-c2ccc(C(=O)N3CCCCC3)cc2Cl)nnc1C1(c2ccccc2)CC1 [Ex. 1-80]
10 to 1000 nM	Cn1c(-c2ccc(C(=O)N3CCC(O)CC3)cc2Cl)nnc1C1(c2ccccc2)CC1 [Ex. 1-81]
< 10 nM	Cn1c(-c2ccc(C(=O)NCC(N)=O)cc2Cl)nnc1C1(c2ccccc2)CC1 [Ex. 1-82]

More lines, now with the values behind:

Compound	IC50
Cn1c(C2CCN(c3c(Cl)cncc3Cl)CC2)nnc1C1(c2ccc(Cl)cc2)CC1 [Ex. 1-1, 3′,5′-dichloro-4-(5-(1-(4-chlorophenyl)cyclopropyl)-4-methyl-4H-[1,2,4]triazol-3-yl)-3,4,5,6-tetrahydro-2H-[1,4′]bipyridyl hydrochloride]	10 to 1000 nM
Cn1c(C2CCN(c3ncccc3Cl)CC2)nnc1C1(c2ccccc2)CCCC1 [Ex. 1-2]	< 10 nM
CC(=O)N1CCC(c2nnc(C3(c4ccccc4)CC3)n2C)CC1 [Ex. 1-4]	10 to 1000 nM
OCCn1c(C2CCN(c3c(Cl)cncc3Cl)CC2)nnc1C1(c2ccccc2)CC1 [Ex. 1-5]	< 10 nM
NCCn1c(C2CCN(c3c(Cl)cncc3Cl)CC2)nnc1C1(c2ccccc2)CC1 [Ex. 1-6]	10 to 1000 nM
CC(=O)NCCn1c(C2CCN(c3c(Cl)cncc3Cl)CC2)nnc1C1(c2ccccc2)CC1 [Ex. 1-7]	10 to 1000 nM
COC(=O)CCn1c(C2CCN(c3c(Cl)cncc3Cl)CC2)nnc1C1(c2ccccc2)CC1 [Ex. 1-8]	< 10 nM
CNC(=O)CCn1c(C2CCN(c3c(Cl)cncc3Cl)CC2)nnc1C1(c2ccccc2)CC1 [Ex. 1-10]	10 to 1000 nM
Cn1c(C2(c3ccccc3)CC2)nnc1[C@H]1CC[C@H](Oc2ccc(Cl)cc2Cl)CC1 [Ex. 1-11]	10 to 1000 nM
Cn1c(C2CCN(Cc3ccc(Cl)cc3Cl)CC2)nnc1C1(c2ccccc2)CC1 [Ex. 1-12]	10 to 1000 nM
Cn1c(C2CCN(c3c(Cl)cncc3Cl)CC2)nnc1C1(c2ccccc2)CCCC1 [Ex. 1-13]	< 10 nM
Cn1c(C2CCN(c3ncccc3Cl)CC2)nnc1C1(c2ccccc2)CC1 [Ex. 1-14]	< 10 nM
Cn1c(C2CCN(c3c(Cl)cncc3Cl)CC2)nnc1C1(c2ccccc2)CC1 [Ex. 1-15]	< 10 nM
Cn1c(C2CCN(c3c(Cl)cncc3Cl)CC2)nnc1C1(c2ccccc2)CCNCC1 [Ex. 1-16]	10 to 1000 nM
Cn1c(-c2ccc(Cl)cc2Cl)nnc1C1(c2ccccc2)CC1 [Ex. 1-18]	< 10 nM
Cn1c(-c2ccc([N+](=O)[O-])cc2Cl)nnc1C1(c2ccccc2)CC1 [Ex. 1-20]	< 10 nM
CC(=O)Nc1ccc(-c2nnc(C3(c4ccccc4)CC3)n2C)c(Cl)c1 [Ex. 1-21]	< 10 nM
Cn1c(-c2ccc(NS(C)(=O)=O)cc2Cl)nnc1C1(c2ccccc2)CC1 [Ex. 1-22]	< 10 nM
Cn1c(-c2ccc(NC(=O)CO)cc2Cl)nnc1C1(c2ccccc2)CC1 [Ex. 1-23]	< 10 nM

Compound	IC50
COCC(=O)Nc1ccc(-c2nnc(C3(c4ccccc4)CC3)n2C)c(Cl)c1 [Ex. 1-24]	< 10 nM
CN(C)CC(=O)Nc1ccc(-c2nnc(C3(c4ccccc4)CC3)n2C)c(Cl)c1 [Ex. 1-25]	< 10 nM
Cn1c(-c2ccc(N)cc2Cl)nnc1C1(c2ccccc2)CC1 [Ex. 1-26]	< 10 nM
Cn1c(-c2ccc(N3CCCC3=O)cc2Cl)nnc1C1(c2ccccc2)CC1 [Ex. 1-27]	10 to 1000 nM
CCCC(=O)Nc1ccc(-c2nnc(C3(c4ccccc4)CC3)n2C)c(Cl)c1 [Ex. 1-28]	< 10 nM
CC(C)C(=O)Nc1ccc(-c2nnc(C3(c4ccccc4)CC3)n2C)c(Cl)c1 [Ex. 1-29]	< 10 nM
Cn1c(-c2ccc(NC(=O)N3CCOCC3)cc2Cl)nnc1C1(c2ccccc2)CC1 [Ex. 1-30]	< 10 nM
Cn1c(-c2ccc(NC(=O)CN3CCOCC3)cc2Cl)nnc1C1(c2ccccc2)CC1 [Ex. 1-31]	< 10 nM
Cn1c(-c2ccc(NC3CCN(C(=O)OC(C)(C)C)CC3)cc2Cl)nnc1C1(c2ccccc2)CC1 [Ex. 1-32]	< 10 nM
CN(C)C(=O)Nc1ccc(-c2nnc(C3(c4ccccc4)CC3)n2C)c(Cl)c1 [Ex. 1-33]	10 to 1000 nM
Cn1c(-c2ccc(NS(N)(=O)=O)cc2Cl)nnc1C1(c2ccccc2)CC1 [Ex. 1-34]	< 10 nM
Cn1c(-c2ccc(NC(N)=O)cc2Cl)nnc1C1(c2ccccc2)CC1 [Ex. 1-35]	< 10 nM
Cn1c(-c2ccc(N3CCOC3=O)cc2Cl)nnc1C1(c2ccccc2)CC1 [Ex. 1-36]	< 10 nM
CCOC(=O)Nc1ccc(-c2nnc(C3(c4ccccc4)CC3)n2C)c(Cl)c1 [Ex. 1-38]	< 10 nM
Cn1c(-c2ccc(N3CCNC3=O)cc2Cl)nnc1C1(c2ccccc2)CC1 [Ex. 1-39]	< 10 nM
COC1CCN(C(=O)Nc2ccc(-c3nnc(C4(c5ccccc5)CC4)n3C)c(Cl)c2)CC1 [Ex. 1-40]	10 to 1000 nM
Cn1c(-c2ccc(NC(=O)N3CCCC(O)C3)cc2Cl)nnc1C1(c2ccccc2)CC1 (stereo not drawn) [Ex. 1-41]	10 to 1000 nM
Cn1c(-c2ccc(NC(=O)N3CCC(O)CC3)cc2Cl)nnc1C1(c2ccccc2)CC1 [Ex. 1-42]	10 to 1000 nM
Cn1c(-c2ccc(NC(=O)CN3CCC(O)CC3)cc2Cl)nnc1C1(c2ccccc2)CC1 [Ex. 1-43]	10 to 1000 nM
